# Measurements from patent publication US20260284100A1, “USE OF SULFATED GLUCO-GALACTOOLIGOSACCHARIDE IN PREPARATION OF DRUGS FOR TREATING ATOPIC DERMATITIS” (Nanjing University of Science and Technology, priority 2025, published 2026).
# Experiments:
# IL-1β = test: qRT-PCR of IL-1β mRNA in ear and dorsal skin of DNCB-induced AD mice; format: in vivo, mouse (female BALB/c); settings: dorsal and ear skin tissues; 5 and 20 g/L topical, compared with DNCB group
# Protocol: (§1) Female BALB/c mice (6-8 weeks old) provided by the Comparative Medicine Center of Yangzhou University were used in the experiment. All mice were housed under standard feeding conditions with a 12-hour light-dark cycle, and food and water were freely accessible to them. To establish the atopic dermatitis mouse model, the hair on the back of the mice was removed using a shaver and depilatory cream on Day 0 of the experiment. On Day 1 of the experiment, 100 μL of 20 g/L DNCB was applied to the back and 10 μL to the ear of each mouse to induce atopic dermatitis. On Day 5, 8 and 11 of the experiment, 100 μL of 5 g/L DNCB was applied to the back, 10 μL to the ear of each mouse every morning to challenge atopic dermatitis. The mice were euthanized 24 hours after the final challenge. […]
# (§2) After all the mice were euthanized, an appropriate amount of ear and dorsal skin tissues was harvested. […] Real-time fluorescent quantitative PCR (qRT-PCR) was performed to specifically detect the expression of IL-1β, IL-4, IL-8 and TSLP.
# DNCB-induced AD mice [1] = test: Scratching behavior test in DNCB-induced AD mice; format: in vivo, mouse (female BALB/c); settings: DNCB group 107
# Protocol: as §1
# Prior to the start of the experiment, the mice were allowed to acclimatize to the cages for 1 hour to ensure they could relax and display normal behavioral patterns. During this period, the behavior of the mice scratching the skin of their neck, ears and back with their paws was closely observed and recorded.
# IgE = test: Determination of IgE in serum (ELISA) of DNCB-induced AD mice; format: in vivo, mouse (female BALB/c); settings: DNCB group 12.65
# Protocol: as §1
# (§3) Before euthanasia, the mice were anesthetized, and blood samples were collected from the orbit. The blood samples of the mice in each group were analyzed using a fully automatic hematology analyzer. […] The levels of IgE and IL-4 were measured using a double-antibody sandwich enzyme-linked immunosorbent assay, according to the manufacturer's instructions.
# DNCB-induced AD mice [2] = test: Skin histology, H&E staining, in DNCB-induced AD mice; format: in vivo, mouse (female BALB/c); settings: treatment groups (5 and 20 g/L topical) compared with DNCB group
# Protocol: as §1
# IL-4 [3] = test: qRT-PCR of IL-4 mRNA in ear and dorsal skin of DNCB-induced AD mice; format: in vivo, mouse (female BALB/c); settings: dorsal and ear skin tissues; 5 and 20 g/L topical, compared with DNCB group
# Protocol: as §1, §2
# [4] = prior studies by the inventors (Carbohydrate Polymers 2025, 347:122782; CN 114533756 A); cited from earlier work
# DNCB-induced AD mice [5] = test: Ear and dorsal skin thickness in DNCB-induced AD mice; format: in vivo, mouse (female BALB/c); settings: for average ear skin thickness: DNCB group 0.44; for average dorsal skin thickness: DNCB group 785
# Protocol: (§4) Female BALB/c mice (6-8 weeks old) provided by the Comparative Medicine Center of Yangzhou University were used in the experiment. All mice were housed under standard feeding conditions with a 12-hour light-dark cycle, and food and water were freely accessible to them. To establish the atopic dermatitis mouse model, the hair on the back of the mice was removed using a shaver and depilatory cream on Day 0 of the experiment. On Day 1 of the experiment, 100 μL of 20 g/L DNCB was applied to the back and 10 μL to the ear of each mouse to induce atopic dermatitis. On Day 5, 8 and 11 of the experiment, 100 μL of 5 g/L DNCB was applied to the back, 10 μL to the ear of each mouse every morning to challenge atopic dermatitis. The mice were euthanized 24 hours after the final challenge.
# (§5) 5 days after the establishment of the atopic dermatitis model, the mice were randomly divided into 4 groups (6 mice per group): a) normal control group (Ctrl group); b) model group (DNCB group), where 100 μL of normal saline was applied to the back and 10 μL to the ear of each mouse every day; c) low-dose group (DNCB+LSRO group), where 100 μL of 5 g/L aqueous solution of sulfated gluco-galactooligosaccharide was applied to the back of each mouse every day, and 10 μL of 5 g/L aqueous solution of sulfated gluco-galactooligosaccharide was applied to the ear of each mouse every day; and d) high-dose group (DNCB+HSRO group), where 100 μL of 20 g/L aqueous solution of sulfated gluco-galactooligosaccharide was applied to the back of each mouse every day, and 10 μL of 20 g/L aqueous solution of sulfated gluco-galactooligosaccharide was applied to the ear of each mouse every day. The skin condition of the mice was recorded daily.
# The ear thickness was accurately measured every day using an electronic caliper. Before the mice were euthanized, the thickness of the dorsal skin was measured with a caliper. Three measurements were taken at different positions on the mid-back, near the neck, and near the tail, and the average value was taken as the final measurement result.
# DNCB-induced AD mice [6] = test: Dorsal skin inflammatory lesions (daily photographs) in DNCB-induced AD mice; format: in vivo, mouse (female BALB/c); settings: treatment groups (5 and 20 g/L topical) compared with DNCB group
# Protocol: as §1
# (§6) The skin of the mice was photographed at the same time every day to record the skin condition, and the body weight of the mice was measured.
# [7] = Body weight in DNCB-induced AD mice; format: in vivo, mouse (female BALB/c); settings: different-dose treatment groups (5 and 20 g/L topical); DNCB group decreased significantly
# Protocol: as §1, §6
# [8] = test system: mast cells in skin tissues; test: Skin histology, toluidine blue (TBO) staining, mast cell number; format: in vivo, mouse (female BALB/c); settings: dorsal skin, DNCB group 56
# Protocol: as §1
# TSLP = test: qRT-PCR of TSLP mRNA in ear and dorsal skin of DNCB-induced AD mice; format: in vivo, mouse (female BALB/c); settings: dorsal and ear skin tissues; 5 and 20 g/L topical, compared with DNCB group
# Protocol: as §1, §2
# [9] = test system: HaCaT cells stimulated by TNF-α/IFN-γ; test: mRNA expression of inflammatory cytokines in HaCaT cells stimulated by TNF-α/IFN-γ; format: cell-based, human; settings: TNF-α/IFN-γ 10 ng/ml 18 h, then 100 or 200 μg/mL for 6 h
# Protocol: HaCaT cells were used in the experiment, and their culture was carried out in high-glucose DMEM medium containing 10% fetal bovine serum, 1% streptomycin, and 1% erythromycin. The cells were incubated in a carbon dioxide incubator at 37° C. and passaged using trypsin digestion.
# • 1) HaCaT cells were uniformly seeded in 6-well plates at a density of 5×10^5 cells per well. Control group and experimental groups were set up, namely the Ctrl group, TNF-α+IFN-γ group, LSRO+TNF-α+IFN-γ group and HSRO+TNF-α+IFN-γ group. • 2) TNF-α/IFN-γ (10 ng/ml) was added to the TNF-α+IFN-γ, LSRO+TNF-α+IFN-γ and HSRO+TNF-α+IFN-γ groups, respectively, while an equal volume of PBS solution (pH=7.2) was added to the Ctrl group. The plates were shaken crosswise to mix thoroughly, followed by incubation at 37° C. for 18 h in a carbon dioxide incubator. • 3) PBS, PBS, 100 μg/mL and 200 μg/mL sulfated gluco-galactooligosaccharide were added to the Ctrl, TNF-α+IFN-γ, LSRO+TNF-α+IFN-γ and HSRO+TNF-α+IFN-γ groups, respectively. The 6-well plates were placed in a carbon dioxide incubator at 37° C., and the cells were harvested after 6 h of incubation.
# HaCaT cells were harvested, followed by RNA extraction and reverse transcription into cDNA. The expression levels of related genes such as IL-4, IL-6 and TNF-α were detected via fluorescent quantitative PCR. […]
# DNCB-induced AD mice [10] = test: Weight of spleens and lymph nodes in DNCB-induced AD mice; format: in vivo, mouse (female BALB/c); settings: for average weight of the lymph nodes: DNCB group 16.4; for average weight of the spleen: DNCB group 221
# Protocol: as §4, §5
# After the mice were euthanized, the spleens and lymph nodes of the mice in each group were harvested and weighed.
# IL-4 [11] = test: Determination of IL-4 in serum (ELISA) of DNCB-induced AD mice; format: in vivo, mouse (female BALB/c); settings: DNCB group 253.5
# Protocol: as §1, §3
# IL-8 = test: qRT-PCR of IL-8 mRNA in ear and dorsal skin of DNCB-induced AD mice; format: in vivo, mouse (female BALB/c); settings: dorsal and ear skin tissues; 5 and 20 g/L topical, compared with DNCB group
# Protocol: as §1, §2
# [12] = DNCB+HSRO group, 20 g/L topical daily
# [13] = DNCB+LSRO group, 5 g/L topical daily
substance,measurement,setting,value
sulfated gluco-galactooligosaccharide,mRNA level of IL-1β,IL-1β,significantly decreased in a dose-dependent manner
same,average scratching frequency,"DNCB-induced AD mice [1]; DNCB+HSRO group, 20 g/L aqueous solution topical daily (100 μL back, 10 μL ear)",58 times
same,average scratching frequency,"DNCB-induced AD mice [1]; DNCB+LSRO group, 5 g/L aqueous solution topical daily (100 μL back, 10 μL ear)",76 times
same,average level of IgE in serum,IgE; [12],10.01 µg/mL
same,average level of IgE in serum,IgE; [13],10.45 µg/mL
same,"H&E staining of ear and dorsal skin (epidermal hyperplasia, hyperkeratosis, inflammatory cell infiltration)",DNCB-induced AD mice [2],"maintained the skin structure integrity, alleviated skin lesions and protected skin tissues from damage"
same,mRNA level of IL-4,IL-4 [3],significantly decreased in a dose-dependent manner
same,anticoagulant activity,[4],has anticoagulant activity
same,average ear skin thickness,DNCB-induced AD mice [5]; [12],0.33 mm
same,average dorsal skin thickness,DNCB-induced AD mice [5]; [12],545 μm
same,average ear skin thickness,DNCB-induced AD mice [5]; [13],0.375 mm
same,average dorsal skin thickness,DNCB-induced AD mice [5]; [13],606 μm
same,"dorsal skin inflammatory lesions (dryness, erythema, erosion, edema)",DNCB-induced AD mice [6],effectively alleviated these symptoms
same,DNCB-induced weight loss (body weight),[7],not obvious
same,average number of mast cells,[8]; [12],26
same,average number of mast cells,[8]; [13],32
same,mRNA level of TSLP,TSLP,significantly decreased in a dose-dependent manner
same,"mRNA expression of inflammatory cytokines (IL-4, IL-6, TNF-α)",[9],significantly inhibit the elevation of inflammatory cytokines induced by TNF-α/IFN-γ
same,average weight of the lymph nodes,DNCB-induced AD mice [10]; [12],9.45 mg
same,average weight of the spleen,DNCB-induced AD mice [10]; [12],165 mg
same,average weight of the lymph nodes,DNCB-induced AD mice [10]; [13],10.3 mg
same,average weight of the spleen,DNCB-induced AD mice [10]; [13],183 mg
same,average level of IL-4 in serum,IL-4 [11]; [12],201 pg/mL
same,average level of IL-4 in serum,IL-4 [11]; [13],232 pg/mL
same,mRNA level of IL-8,IL-8,significantly decreased in a dose-dependent manner
